PubChem BioAssay AID248 (DTP/NCI, 2004)
Toxic doses and inconclusive results are not listed. Cut-off read from the data, not from the text of the source: active = T/C of 150% or more; inactive = T/C below 125%. Peptide text beside a SMILES is read from it.

System: L1210 leukemia ip in BDF1 mice, survival T/C
Experiment: NCI In Vivo Anticancer Drug Screen. Data for tumor model L1210 Leukemia (intraperitoneal) in B6D2F1 (BDF1) mice
Details: endpoint: mean survival time, higher = longer survival
In short: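 Mice bearing the transplanted tumor received compound or vehicle. Survival of the treated group was divided by that of the vehicle-treated control group to give the ratio.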

[1] = dose: 100.0 mg/kg/injection, schedule: Q04DX003 (ip), vehicle: Klucel (hydroxypropylcellulose) (HPC)
[2] = dose: 200.0 mg/kg/injection, schedule: Q04DX003 (ip), vehicle: Klucel (hydroxypropylcellulose) (HPC)
[3] = dose: 100.0 mg/kg/injection, schedule: Q04DX003 (ip), vehicle: saline with Tween-80
[4] = dose: 200.0 mg/kg/injection, schedule: Q04DX003 (ip), vehicle: saline with Tween-80
[5] = dose: 400.0 mg/kg/injection, schedule: Q04DX003 (ip), vehicle: saline with Tween-80
[6] = dose: 25.0 mg/kg/injection, schedule: Q01DX009 (ip), vehicle: saline
[7] = dose: 50.0 mg/kg/injection, schedule: Q01DX009 (ip), vehicle: saline
[8] = dose: 100.0 mg/kg/injection, schedule: Q01DX009 (ip), vehicle: saline
[9] = dose: 50.0 mg/kg/injection, schedule: Q01DX001 (ip), vehicle: carboxymethylcellulose (CMC)
[10] = dose: 200.0 mg/kg/injection, schedule: Q01DX001 (ip), vehicle: carboxymethylcellulose (CMC)

Measured: T/C

CCN(CC)N=Nc1ccccc1-c1nc(N)nc(N)n1
inactive: [1] 95 % of control | [2] 108 % of control

CCCCCCCCC(=O)Nc1cccc(O)c1
inactive: [3] 96 % of control | [4] 101 % of control | [5] 96 % of control

O=[N+]([O-])c1ccccc1Sc1ccc2c3c(cccc13)CN(CCCO)C2
inactive: dose: 100.0 mg/kg/injection, schedule: Q04DX002 (ip), vehicle: Klucel (hydroxypropylcellulose) (HPC) 90 % of control | dose: 200.0 mg/kg/injection, schedule: Q04DX002 (ip), vehicle: Klucel (hydroxypropylcellulose) (HPC) 108 % of control | dose: 400.0 mg/kg/injection, schedule: Q04DX002 (ip), vehicle: Klucel (hydroxypropylcellulose) (HPC) 104 % of control

COc1cccc(/C(C#N)=C\O)c1
inactive: dose: 100.0 mg/kg/injection, schedule: Q04DX002 (ip), vehicle: saline with Tween-80 104 % of control | dose: 200.0 mg/kg/injection, schedule: Q04DX002 (ip), vehicle: saline with Tween-80 96 % of control

O=C(C[n+]1ccccc1)N/N=C/c1ccc(Cl)c(Cl)c1
inactive: [6] 94 % of control | [7] 102 % of control | [8] 102 % of control

COc1ccc(C(C)(O)c2cnc(C)n2Cc2ccccc2)cc1 (configuration not stated)
inactive: [1] 99 % of control | [2] 97 % of control | dose: 400.0 mg/kg/injection, schedule: Q04DX003 (ip), vehicle: Klucel (hydroxypropylcellulose) (HPC) 95 % of control

NC(N)=NCCCC(N)C(=O)NC(CCC(=O)O)C(=O)O (stereo not drawn) (H-Arg-Glu-OH; configuration not given here)
inactive: dose: 25.0 mg/kg/injection, schedule: Q04DX002 (ip), vehicle: saline 98 % of control | dose: 50.0 mg/kg/injection, schedule: Q04DX002 (ip), vehicle: saline 121 % of control | dose: 100.0 mg/kg/injection, schedule: Q04DX002 (ip), vehicle: saline 110 % of control

O=C(c1ccc(O)cc1O)c1ccc(O)cc1O
inactive: dose: 50.0 mg/kg/injection, schedule: Q04DX002 (ip), vehicle: gum acacia 114 % of control | dose: 100.0 mg/kg/injection, schedule: Q04DX002 (ip), vehicle: gum acacia 104 % of control | dose: 200.0 mg/kg/injection, schedule: Q04DX002 (ip), vehicle: gum acacia 86 % of control

O=C1NC(=O)C2C3OC(C(Br)C3Br)C12 (configuration not stated)
inactive: dose: 100.0 mg/kg/injection, schedule: Q01DX009 (ip), vehicle: acetone 86 % of control | [3] 93 % of control | dose: 200.0 mg/kg/injection, schedule: Q01DX009 (ip), vehicle: acetone 86 % of control | [4] 108 % of control | dose: 400.0 mg/kg/injection, schedule: Q01DX009 (ip), vehicle: acetone 88 % of control | [5] 95 % of control

CN(C(=O)/C=C/C(=O)O)c1ccccc1
inactive: [6] 104 % of control | [7] 110 % of control | dose: 50.0 mg/kg/injection, schedule: Q04DX003 (ip), vehicle: saline with Tween-80 98 % of control | [8] 105 % of control | [3] 101 % of control | dose: 200.0 mg/kg/injection, schedule: Q01DX009 (ip), vehicle: saline 96 % of control | [4] 95 % of control | [5] 97 % of control

CCCC[n+]1cc(C(N)=O)cc2ccccc21
inactive: dose: 75.0 mg/kg/injection, schedule: Q01DX001 (ip), vehicle: saline 96 % of control | dose: 150.0 mg/kg/injection, schedule: Q01DX001 (ip), vehicle: saline 95 % of control

Brc1csnn1
inactive: [9] 98 % of control | dose: 100.0 mg/kg/injection, schedule: Q01DX001 (ip), vehicle: carboxymethylcellulose (CMC) 110 % of control | [10] 95 % of control

Cc1cccc(NC(=O)OCCN(CCOC(=O)Nc2cccc(C)c2)c2cccc(C)c2)c1
inactive: dose: 100.0 mg/kg/injection, schedule: Q01DX001 (ip), vehicle: saline 88 % of control | dose: 200.0 mg/kg/injection, schedule: Q01DX001 (ip), vehicle: saline 90 % of control | dose: 400.0 mg/kg/injection, schedule: Q01DX001 (ip), vehicle: saline 94 % of control

C=CC/C=C/CCC
inactive: [9] 88 % of control | [10] 88 % of control | dose: 400.0 mg/kg/injection, schedule: Q01DX001 (ip), vehicle: carboxymethylcellulose (CMC) 90 % of control
